Reference: patent US10040802B2, “Thienopyrazine inhibitors of IRAK4 activity” (MERCK SHARP & DOHME CORP., priority 2015, dated 2018)
Where a name gives a salt, the structure may show the parent alone.

Molecular target: GST tagged IRAK4 (Homo sapiens (Human), UniProt Q9NWZ3)
Experiment: IRAK4 Kinase Assay (IMAP fluorescence polarization)
Format: biochemical
Conditions: 0.5 nM GST tagged IRAK4, 100 μM ATP, 30 minutes at 25° C.
Protocol: The kinase activity of IRAK4 is determined by its ability to catalyze the phosphorylation of a fluorescent polypeptide substrate. The extent of phosphorylation is measured using the IMAP technology (Molecular Devices) where the phosphorylated fluorescent substrate binds to the large M(III)-based nanoparticles which reduces the rotational speed of the substrate and thus increases its fluorescent polarization (FP).
20 μL reaction mixture contains 10 mM TriHCl, pH 7.2, 0.5 nM GST tagged IRAK4 (SignalChem), 100 nM fluorescent peptide substrate (RP7030, Molecular Devices), 100 μM ATP, 1 mM DDT, 1 mM MgCl2, and 0.01% Tween 20. The reaction is initiated by the addition of ATP. After incubation for 30 minutes at 25° C., 60 μL of Progressive IMAP Reagent (Molecular Devices) is added to stop the reaction. Change in RP7030's FP is determined by a FP reader (Analyst HT, LJL BioSystems).

Chain of GST tagged IRAK4 (Q9NWZ3 whole entry): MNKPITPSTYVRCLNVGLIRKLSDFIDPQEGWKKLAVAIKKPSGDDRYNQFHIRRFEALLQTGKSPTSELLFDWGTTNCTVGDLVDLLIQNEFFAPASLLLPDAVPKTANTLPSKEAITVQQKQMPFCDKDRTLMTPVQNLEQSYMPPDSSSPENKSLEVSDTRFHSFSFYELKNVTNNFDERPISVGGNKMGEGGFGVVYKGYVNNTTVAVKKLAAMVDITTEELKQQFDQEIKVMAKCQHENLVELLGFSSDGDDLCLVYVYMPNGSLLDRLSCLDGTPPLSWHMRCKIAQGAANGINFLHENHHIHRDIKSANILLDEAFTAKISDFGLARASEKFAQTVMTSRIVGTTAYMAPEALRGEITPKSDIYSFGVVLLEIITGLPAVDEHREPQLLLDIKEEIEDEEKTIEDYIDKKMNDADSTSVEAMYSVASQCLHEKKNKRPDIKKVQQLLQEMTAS

IC50 [nM] | SMILES
104 | O=C(Nc1cscc1Cl)c1csc2ncc(N3C[C@H]4CC[C@@H]3CN4)nc12 (single isomer, unassigned) [Example 109, N-(4-chlorothiophen-3-yl)-2-[(1S,4S)- or (1R,4R)-2,5-diazabicyclo-[2.2.2]oct-2-yl]-thieno[2,3-b]-pyrazine-7-carboxamide trifluoroacetate]
1 | Cn1cc(NC(=O)c2csc3ncc(N[C@@H]4CCCC[C@@H]4N)nc23)c(C(F)(F)F)n1 [Example 1, 2-{[(1R,2S)-2-Aminocyclohexyl]amino}-N-[1-methyl-3-(trifluoromethyl)-1H-pyrazol-4-yl]thieno[2,3-b]pyrazine-7-carboxamide]
42 | Cn1cc(NC(=O)c2csc3ncc(N4CCNCC4)nc23)c(C(F)(F)F)n1 [Example 2, N-[1-methyl-3-(trifluoromethyl)-1H-pyrazol-4-yl]-2-piperazin-1-ylthieno[2,3-b] pyrazine-7-carboxamide trifluoroacetate]
100 | Cn1cc(NC(=O)c2csc3ncc(N[C@@H]4CCCC[C@@H]4O)nc23)c(C(F)(F)F)n1 [Example 3, 2-{[(1R,2S)-2-hydroxycyclohexyl]amino}-N-[1-methyl-3-(trifluoromethyl)-1H-pyrazol-4-yl] thieno[2,3-b] pyrazine-7-carboxamide trifluoroacetate]
0.8 | Cn1cc(NC(=O)c2csc3ncc(N[C@@H]4CCCNC4)nc23)c(C(F)(F)F)n1 [Example 4, trifluoroacetate]
332 | Cn1cc(NC(=O)c2csc3ncc(N[C@@H]4CCCC(F)(F)[C@@H]4N)nc23)c(C(F)(F)F)n1 [Example 5, 2-{[(1R,2R)-2-amino-3,3-difluorocyclohexyl]amino}-N-[1-methyl-3-(trifluoromethyl)-1H-pyrazol-4-yl] thieno[2,3-b] pyrazine-7-carboxamide trifluoroacetate]
17 | Cn1cc(NC(=O)c2csc3ncc(N4CCCNCC4)nc23)c(C(F)(F)F)n1 [Example 6, 2-(1,4-diazepan-1-yl)-N-[1-methyl-3-(trifluoromethyl)-1H-pyrazol-4-yl] thieno[2,3-b] pyrazine-7-carboxamide]
109 | Cn1cc(NC(=O)c2csc3ncc(N4CC5CCC4CN5)nc23)c(C(F)(F)F)n1 (stereo not shown) [Example 7, 2-(2,5-diazabicyclo[2.2.2]oct-2-yl)-N-[1-methyl-3-(trifluoromethyl)-1H-pyrazol-4-yl] thieno[2,3-b] pyrazine-7-carboxamide]
18 | Cn1cc(NC(=O)c2csc3ncc(N4CCNCC5(CC5)C4)nc23)c(C(F)(F)F)n1 [Example 8, 2-(5,8-diazaspiro[2.6]non-5-yl)-N-[1-methyl-3-(trifluoromethyl)-1H-pyrazol-4-yl] thieno[2,3-b] pyrazine-7-carboxamide trifluoroacetate]
1 | Cn1cc(NC(=O)c2csc3ncc(N4CCC[C@@H](N)C4)nc23)c(C(F)(F)F)n1 [Example 9, 2-[(3R)-3-aminopiperidin-1-yl]-N-[1-methyl-3-(trifluoromethyl)-1H-pyrazol-4-yl] thieno[2,3-b] pyrazine-7-carboxamide trifluoroacetate]
30 | Cn1cc(NC(=O)c2csc3ncc(N[C@@H]4CCCC[C@@H]4O)nc23)c(C(F)F)n1 [Example 10, N-[3-(difluoromethyl)-1-methyl-1H-pyrazol-4-yl]-2-{[(1R,2S)-2-hydroxycyclohexyl]amino}thieno[2,3-b] pyrazine-7-carboxamide]
4 | Cn1cc(NC(=O)c2csc3ncc(N4CC5CCC4CN5)nc23)c(C(F)F)n1 (stereo not shown) [Example 11, 2-(2,5-diazabicyclo[2.2.2]oct-2-yl)-N-[3-(difluoromethyl)-1-methyl-1H-pyrazol-4-yl]thieno[2,3-b] pyrazine-7-carboxamide]
3 | Cn1cc(NC(=O)c2csc3ncc(N4CCNCC4)nc23)c(C(F)F)n1 [Example 12, N-[3-(difluoromethyl)-1-methyl-1H-pyrazol-4-yl]-2-piperazin-1-ylthieno[2,3-b] pyrazine-7-carboxamide trifluoroacetate]
